Test: Phase I clinical trial: treatment-emergent adverse events (patients, n (%)), dose limiting toxicity, MTD
Type: in vivo
Protocol: Safety, maximum tolerated dose (MTD), pharmacokinetics (PK) and preliminary antitumor activity were evaluated.
Pharmacodynamic (PD) endpoints were evaluated in surrogate (peripheral blood cells [PBCs], skin) and tumor tissues for the phosphorylation of TORC1-dependent markers (4EBP1/S6), and TORC2-dependent markers (AKT/PRAS40).

CC(C)n1nc(-c2ccc3oc(N)nc3c2)c2c(N)ncnc21 [compound A]
Anaemia (2 mg/day (N = 3)): 0 (0%) | Asthenia (2 mg/day (N = 3)): 0 (0%) | Blood creatinine increased (2 mg/day (N = 3)): 0 (0%) | Coagulopathy (2 mg/day (N = 3)): 0 (0%) | Confusional state (2 mg/day (N = 3)): 0 (0%) | Cough (2 mg/day (N = 3)): 0 (0%) | Decreased appetite (2 mg/day (N = 3)): 1 (33%) | Dehydration (2 mg/day (N = 3)): 0 (0%) | Diarrhoea (2 mg/day (N = 3)): 0 (0%) | Dizziness (2 mg/day (N = 3)): 0 (0%) | Dry mouth (2 mg/day (N = 3)): 1 (33%) | Dry skin (2 mg/day (N = 3)): 0 (0%) | Dysgeusia (2 mg/day (N = 3)): 2 (67%) | Dyspepsia (2 mg/day (N = 3)): 1 (33%) | Dyspnoea (2 mg/day (N = 3)): 0 (0%) | Dyspnoea exertional (2 mg/day (N = 3)): 0 (0%) | Eye infection (2 mg/day (N = 3)): 0 (0%) | Fatigue (2 mg/day (N = 3)): 1 (33%) | Gastritis (2 mg/day (N = 3)): 0 (0%) | Gravitational oedema (2 mg/day (N = 3)): 0 (0%) | Hypercholesterolaemia (2 mg/day (N = 3)): 0 (0%) | Hyperglycaemia (2 mg/day (N = 3)): 2 (67%) | Hypocalcaemia (2 mg/day (N = 3)): 0 (0%) | Insomnia (2 mg/day (N = 3)): 0 (0%) | Lymphopenia (2 mg/day (N = 3)): 0 (0%) | Mucosal inflammation (2 mg/day (N = 3)): 0 (0%) | Muscle spasms (2 mg/day (N = 3)): 0 (0%) | Nausea (2 mg/day (N = 3)): 1 (33%) | Orthostatic hypotension (2 mg/day (N = 3)): 0 (0%) | Panniculitis (2 mg/day (N = 3)): 0 (0%) | Patients Reporting at Least One Related TEAE (2 mg/day (N = 3)): 3 (100%) | Polyuria (2 mg/day (N = 3)): 0 (0%) | Pruritus (2 mg/day (N = 3)): 0 (0%) | Rash (2 mg/day (N = 3)): 1 (33%) | Skin discolouration (2 mg/day (N = 3)): 0 (0%) | Skin exfoliation (2 mg/day (N = 3)): 0 (0%) | Thrombocytopenia (2 mg/day (N = 3)): 0 (0%) | Vomiting (2 mg/day (N = 3)): 0 (0%) | Weight decreased (2 mg/day (N = 3)): 0 (0%) | Anaemia (4 mg/day (N = 7)): 0 (0%) | Asthenia (4 mg/day (N = 7)): 0 (0%) | Blood creatinine increased (4 mg/day (N = 7)): 1 (14%) | Coagulopathy (4 mg/day (N = 7)): 0 (0%) | Confusional state (4 mg/day (N = 7)): 0 (0%) | Cough (4 mg/day (N = 7)): 0 (0%) | Decreased appetite (4 mg/day (N = 7)): 1 (14%) | Dehydration (4 mg/day (N = 7)): 0 (0%) | Diarrhoea (4 mg/day (N = 7)): 0 (0%) | Dizziness (4 mg/day (N = 7)): 0 (0%) | Dry mouth (4 mg/day (N = 7)): 1 (14%) | Dry skin (4 mg/day (N = 7)): 0 (0%) | Dysgeusia (4 mg/day (N = 7)): 3 (43%) | Dyspepsia (4 mg/day (N = 7)): 0 (0%) | Dyspnoea (4 mg/day (N = 7)): 0 (0%) | Dyspnoea exertional (4 mg/day (N = 7)): 1 (14%) | Eye infection (4 mg/day (N = 7)): 0 (0%) | Fatigue (4 mg/day (N = 7)): 2 (29%) | Gastritis (4 mg/day (N = 7)): 0 (0%) | Gravitational oedema (4 mg/day (N = 7)): 0 (0%) | Hypercholesterolaemia (4 mg/day (N = 7)): 1 (14%) | Hyperglycaemia (4 mg/day (N = 7)): 5 (71%) | Hypocalcaemia (4 mg/day (N = 7)): 0 (0%) | Insomnia (4 mg/day (N = 7)): 0 (0%) | Lymphopenia (4 mg/day (N = 7)): 1 (14%) | Mucosal inflammation (4 mg/day (N = 7)): 2 (29%) | Muscle spasms (4 mg/day (N = 7)): 0 (0%) | Nausea (4 mg/day (N = 7)): 2 (29%) | Orthostatic hypotension (4 mg/day (N = 7)): 0 (0%) | Panniculitis (4 mg/day (N = 7)): 0 (0%) | Patients Reporting at Least One Related TEAE (4 mg/day (N = 7)): 7 (100%) | Polyuria (4 mg/day (N = 7)): 1 (14%) | Pruritus (4 mg/day (N = 7)): 2 (29%) | Rash (4 mg/day (N = 7)): 3 (43%) | Skin discolouration (4 mg/day (N = 7)): 0 (0%) | Skin exfoliation (4 mg/day (N = 7)): 0 (0%) | Thrombocytopenia (4 mg/day (N = 7)): 1 (14%) | Vomiting (4 mg/day (N = 7)): 0 (0%) | Weight decreased (4 mg/day (N = 7)): 0 (0%) | Dose limiting toxicity (6 mg QD): Rash | Alanine aminotransferase increased (6 mg/3 W, QDx3d QW (N = 3)): 1 (33%) | Asthenia (6 mg/3 W, QDx3d QW (N = 3)): 0 (0%) | Catheter site inflammation (6 mg/3 W, QDx3d QW (N = 3)): 0 (0%) | Catheter site pain (6 mg/3 W, QDx3d QW (N = 3)): 0 (0%) | Decreased appetite (6 mg/3 W, QDx3d QW (N = 3)): 0 (0%) | Diarrhoea (6 mg/3 W, QDx3d QW (N = 3)): 0 (0%) | Dry skin (6 mg/3 W, QDx3d QW (N = 3)): 0 (0%) | Dysgeusia (6 mg/3 W, QDx3d QW (N = 3)): 0 (0%) | Dyspnoea (6 mg/3 W, QDx3d QW (N = 3)): 0 (0%) | Fatigue (6 mg/3 W, QDx3d QW (N = 3)): 0 (0%) | Headache (6 mg/3 W, QDx3d QW (N = 3)): 0 (0%) | Hyperbilirubinaemia (6 mg/3 W, QDx3d QW (N = 3)): 1 (33%) | Hypercholesterolaemia (6 mg/3 W, QDx3d QW (N = 3)): 0 (0%) | Hyperglycaemia (6 mg/3 W, QDx3d QW (N = 3)): 1 (33%) | Hypertransaminasaemia (6 mg/3 W, QDx3d QW (N = 3)): 0 (0%) | Hypertriglyceridaemia (6 mg/3 W, QDx3d QW (N = 3)): 0 (0%) | Hypomagnesaemia (6 mg/3 W, QDx3d QW (N = 3)): 0 (0%) | Hypotension (6 mg/3 W, QDx3d QW (N = 3)): 0 (0%) | Low fever (6 mg/3 W, QDx3d QW (N = 3)): 0 (0%) | Lymphopenia (6 mg/3 W, QDx3d QW (N = 3)): 0 (0%) | Mucosal inflammation (6 mg/3 W, QDx3d QW (N = 3)): 2 (67%) | Nausea (6 mg/3 W, QDx3d QW (N = 3)): 2 (67%) | Palmar-plantar erythrodysaesthesia syndrome (6 mg/3 W, QDx3d QW (N = 3)): 0 (0%) | Patients Reporting at Least One Related TEAE (6 mg/3 W, QDx3d QW (N = 3)): 3 (100%) | Platelet count decreased (6 mg/3 W, QDx3d QW (N = 3)): 1 (33%) | Pruritus (6 mg/3 W, QDx3d QW (N = 3)): 1 (33%) | Pyrexia (6 mg/3 W, QDx3d QW (N = 3)): 0 (0%) | Rash (6 mg/3 W, QDx3d QW (N = 3)): 1 (33%)
